Patent US7732604B2, “Triazolopyrazine derivatives” (Pfizer Inc., priority 2006, dated 2010)
Where a name gives a salt, the structure may show the parent alone.

target: T1, HGFR (Homo sapiens, UniProt P08581); assay: HGFR continuous-coupled spectrophotometric assay (tyrosine kinase activity on Met-2 substrate peptide); type: biochemical; conditions: HGFR 50 nM, Met-2 peptide 0.5 mM, ATP 300 μM, 37° C., absorbance 340 nm; read-out: Ki
T1 construct: purchased Upstate 14-526
T1 sequence (P08581 974-1390 limits assumed): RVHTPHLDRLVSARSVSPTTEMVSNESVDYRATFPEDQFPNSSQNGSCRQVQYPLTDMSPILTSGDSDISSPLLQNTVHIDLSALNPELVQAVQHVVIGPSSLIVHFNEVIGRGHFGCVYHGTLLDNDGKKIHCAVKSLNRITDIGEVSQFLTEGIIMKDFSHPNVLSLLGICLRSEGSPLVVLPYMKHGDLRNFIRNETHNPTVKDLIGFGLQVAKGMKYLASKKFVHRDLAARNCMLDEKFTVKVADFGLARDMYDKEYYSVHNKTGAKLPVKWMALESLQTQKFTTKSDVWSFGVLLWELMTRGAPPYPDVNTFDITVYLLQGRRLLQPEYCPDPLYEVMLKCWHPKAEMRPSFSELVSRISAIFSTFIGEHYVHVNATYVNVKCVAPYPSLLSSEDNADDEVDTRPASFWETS

SMILES	Ki
CN(CCO)[C@@H]1CCN(c2cnc3nnn(Cc4ccc5ncccc5c4)c3n2)C1 [Example 204, 2-(methyl{(3R)-1-[1-(quino-lin-6-yl-methyl)-1H-[1,2,3]tri-azolo[4,5-b]pyra-zin-6-yl]pyrro-lidin-3-yl}ami-no)ethanol. TFA salt]	0.037 µM
NC(=O)C1CCN(c2cnc3nnn(Cc4ccc5ncccc5c4)c3n2)C1 (stereo not drawn) [Example 176, 1-[1-(quinolin-6-yl-methyl)-1H-[1,2,3]tri-azolo[4,5-b]pyra-zin-6-yl]pyrro-lidine-3-carbox-amide]	0.023 µM
O=C(O)c1cc(F)cc(-c2cnc3nnn(Cc4ccc5ncccc5c4)c3n2)c1 [Example 40, 3-fluoro-5-(3-(quinolin-6-ylmethyl)-3H-[1,2,3]triazolo[4,5-b]pyrazin-5-yl)benzoic acid]	0.012 µM
COCCOc1cnc2nnn(Cc3ccc4ncccc4c3)c2n1 [Example 169, 6-{[6-(2-methoxy-ethoxy)-1H-[1,2,3]tri-azolo[4,5-b]pyra-zin-1-yl]meth-yl}quinoline]	0.026 µM
OC1(C(F)(F)F)CCN([C@@H]2CCN(c3cnc4nnn(Cc5ccc6ncccc6c5)c4n3)C2)CC1 [Example 151, 1-{(3R)-1-[1-(quino-lin-6-yl-methyl)-1H-[1,2,3]tri-azolo[4,5-b]pyra-zin-6-yl]pyrro-lidin-3-yl}-4-(tri-fluoromethyl)pipe-ridin-4-ol]	0.02 µM
c1cnc2ccc(Cn3nnc4ncc(N5CC[C@@H](N6CCOCC6)C5)nc43)cc2c1 [Example 153, 6-({6-[(3R)-3-morpho-lin-4-ylpyrro-lidin-1-yl]-1H-[1,2,3]tri-azolo[4,5-b]pyra-zin-1-yl}meth-yl)quinoline]	0.015 µM
COc1cnc2nnn(Cc3ccc4ncccc4c3)c2n1 [Example 193, 6-[(6-methoxy-1H-[1,2,3]tri-azolo[4,5-b]pyra-zin-1-yl)meth-yl]quinoline]	0.108 µM
NCCNC(=O)c1ccc(-c2cnc3nnn(Cc4ccc5ncccc5c4)c3n2)cc1 [Example 11, N-(2-aminoethyl)-4-(3-(quinolin-6-ylmethyl)-3H-[1,2,3]triazolo[4,5-b]pyrazin-5-yl)benzamide]	0.004 µM
OC[C@H]1C[C@@H]1CNc1cnc2nnn(Cc3ccc4ncccc4c3)c2n1 [Example 129, [(1S,2S)-2-({[1-(quino-lin-6-yl-methyl)-1H-[1,2,3]tri-azolo[4,5-b]pyrazin-6-yl]ami-no}methyl)cyclo-propyl]methanol]	0.013 µM
CCOC(=O)c1cnn(-c2cnc3nnn(Cc4ccc5ncccc5c4)c3n2)c1 [Example 14, ethyl 1-(3-(quinolin-6-ylmethyl)-3H-[1,2,3]triazolo[4,5-b]pyrazin-5-yl)-1H-pyrazole-4-carboxylate]	0.04 µM
CC(=O)N1CC[C@@H](Nc2cnc3nnn(Cc4ccc5ncccc5c4)c3n2)C1 [Example 126, N-[(3R)-1-acetyl-pyrrolidin-3-yl]-1-(quino-lin-6-yl-methyl)-1H-[1,2,3]tri-azolo[4,5-b]pyra-zin-6-amine]	0.016 µM
CC(C)(C)OC(=O)N1CCN(c2cnc3nnn(Cc4ccc5ncccc5c4)c3n2)CC1 [Example 201, tert-butyl 4-(3-(quino-lin-6-yl-methyl)-3H-[1,2,3]tri-azolo[4,5-b]pyra-zin-5-yl)pipe-razine-1-carboxylate]	0.182 µM
CC(c1ccc2ncccc2c1)n1nnc2ncc(Br)nc21 (stereo in doubt) [Example 212, 6-[(S)-1-(6-Bromo-[1,2,3]triazolo [4,5-b]pyrazin-1-yl)-ethyl]-quinoline]	0.042 µM
CC(O)CNc1cnc2nnn(Cc3ccc4ncccc4c3)c2n1 (stereo not drawn) [Example 174, 1-{[1-(quinolin-6-yl-methyl)-1H-[1,2,3]tri-azolo[4,5-b]pyra-zin-6-yl]ami-no}propan-2-ol]	0.007 µM
CC(=O)N[C@H]1CCN(c2cnc3nnn(Cc4ccc5ncccc5c4)c3n2)C1 [Example 198, N-{(3S)-1-[1-(quino-lin-6-yl-methyl)-1H-[1,2,3]tri-azolo[4,5-b]pyra-zin-6-yl]pyrro-lidin-3-yl}acetamide]	0.031 µM
